# Literature values as cited in US20070053983A1 (priority 2005, published 2007).
# System: β-adrenergic receptors
# Details: man; reduced heart rate, cardiac output and exercise systolic pressure; inhibition of isoproterenol-induced and reflex orthostatic tachycardia
structure (smiles),measurement,value
COCCc1ccc(OCC(O)CNC(C)C)cc1 (stereo not shown) [Metoprolol],β-blocking activity,confirmed the β-blocking activity
